According to patent publication US20130261130A1, “NEUROTRYPSIN INHIBITORS” (priority 2010, published 2013):
Read-outs that look alike come from different tables or passages of the source.

Columns and labels:
Assay type in all cases: biochemical
[1] = biological target: T1, Factor Xa (Homo sapiens, UniProt P00742); assay: Determination of the IC50 for various proteases: Factor Xa; conditions: Mean ± SD
T1 construct: Factor Xa; purchased American diagnostic
Experimental: (§1) A 6 mM solution of the test compound in DMSO was prepared. In a V-bottom micro plate the 6 mM compound solution was diluted 6 times in DMSO to obtain a concentration row with the following concentrations: 6 mM, 1.8 mM, 540 μM, 162 μM, 48.8 μM, 14.4 μM, and 4 μM. From this DMSO master plate 1:20 dilutions in 10 mM MOPS pH 8.3 were prepared to obtain solutions of 300, 90, 27, 8.1, 2.44, 0.72 and 0.22 μM in MOPS buffer and 5% DMSO.
(§2) 100 μl of this solution were pipetted into a flat bottom 96 well microplate and placed into a Tecan infinite 200 plate reader. Before measurement, 50 μl of protease solution and, subsequently 50 μl substrate solution were added by the machine. The liberation of free para nitroanilide was detected at 405 nm. The protease solution was freshly prepared by diluting to the desired concentration from a stock solution in 60 mM MOPS; 600 mM NaCl; 20 mM CaCl2; 10% DMSO; 0.4% PEG 6000 pH 8.3. The substrate solution was prepared by dissolving the solid substrate in an adequate amount of water to get the desired concentrations. The used protease and substrate solutions are given below:
(§3) All enzymes except trypsin were from human origin (American diagnostic). Trypsin is hog trypsin (Sigma Aldrich). Substrates were purchased from Chromogenix. […]

[2] = biological target: T2, Thrombin (Homo sapiens, UniProt P00734); assay: Determination of the IC50 for various proteases: thrombin; conditions: Mean ± SD
T2 construct: Thrombin; purchased American diagnostic
Experimental: as §1, §2, §3

[3] = biological target: T3, Trypsin (hog trypsin) (Sus scrofa, UniProt P00761); assay: Determination of the IC50 for various proteases: trypsin; conditions: Mean ± SD
T3 construct: Trypsin is hog trypsin (Sigma Aldrich); purchased Sigma Aldrich
Experimental: as §1, §2, §3

[4] = biological target: T4, tPA (Homo sapiens, UniProt P00750); assay: Determination of the IC50 for various proteases: tPA; conditions: Mean ± SD
T4 construct: purchased American diagnostic
Experimental: as §1, §2, §3

[5] = biological target: T5, Plasmin (Homo sapiens, UniProt P00747); assay: Determination of the IC50 for various proteases: plasmin; conditions: Mean ± SD
T5 construct: Plasmin; purchased American diagnostic
Experimental: as §1, §2, §3

[6] = biological target: Kallikrein (Homo sapiens, UniProt P03952); assay: Determination of the IC50 for various proteases: kallikrein; conditions: Mean ± SD
Experimental: as §1, §2, §3

[7] = biological target: T6, uPA (Homo sapiens, UniProt P00749); assay: Determination of the IC50 for various proteases: uPA; conditions: Mean ± SD
T6 construct: purchased American diagnostic
Experimental: as §1, §2, §3

[8] = biological target: T7, human neurotrypsin (Homo sapiens, UniProt P56730); assay: Determination of IC50 for human neurotrypsin
T7 sequence (P56730 21-875): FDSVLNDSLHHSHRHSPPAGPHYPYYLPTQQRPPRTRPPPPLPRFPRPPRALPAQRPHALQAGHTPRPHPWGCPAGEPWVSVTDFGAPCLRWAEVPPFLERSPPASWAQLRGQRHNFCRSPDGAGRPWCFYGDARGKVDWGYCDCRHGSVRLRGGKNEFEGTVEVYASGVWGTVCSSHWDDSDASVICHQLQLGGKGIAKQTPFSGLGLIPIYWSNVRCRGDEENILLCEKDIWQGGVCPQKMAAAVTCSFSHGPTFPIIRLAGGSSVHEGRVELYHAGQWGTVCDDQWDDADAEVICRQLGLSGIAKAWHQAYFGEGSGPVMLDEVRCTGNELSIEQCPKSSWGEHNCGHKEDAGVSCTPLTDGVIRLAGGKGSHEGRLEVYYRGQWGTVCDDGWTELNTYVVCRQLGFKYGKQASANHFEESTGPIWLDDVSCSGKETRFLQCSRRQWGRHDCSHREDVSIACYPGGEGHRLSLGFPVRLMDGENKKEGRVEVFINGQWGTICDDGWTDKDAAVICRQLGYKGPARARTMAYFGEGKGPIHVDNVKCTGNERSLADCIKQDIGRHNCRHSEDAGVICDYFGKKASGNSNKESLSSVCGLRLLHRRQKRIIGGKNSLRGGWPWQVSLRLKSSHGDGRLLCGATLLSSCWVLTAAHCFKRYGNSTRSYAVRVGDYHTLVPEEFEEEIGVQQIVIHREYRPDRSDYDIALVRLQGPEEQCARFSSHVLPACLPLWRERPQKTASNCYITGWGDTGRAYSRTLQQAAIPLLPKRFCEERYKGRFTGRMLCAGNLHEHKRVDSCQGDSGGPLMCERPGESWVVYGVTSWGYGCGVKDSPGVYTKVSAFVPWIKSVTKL
Experimental: Assessment of the potency of compounds of examples 1-311 in inhibiting the enzymatic activity of human neurotrypsin was performed according to the method described in patent application WO 2006/1103261

Sequence of Kallikrein (P03952 whole entry): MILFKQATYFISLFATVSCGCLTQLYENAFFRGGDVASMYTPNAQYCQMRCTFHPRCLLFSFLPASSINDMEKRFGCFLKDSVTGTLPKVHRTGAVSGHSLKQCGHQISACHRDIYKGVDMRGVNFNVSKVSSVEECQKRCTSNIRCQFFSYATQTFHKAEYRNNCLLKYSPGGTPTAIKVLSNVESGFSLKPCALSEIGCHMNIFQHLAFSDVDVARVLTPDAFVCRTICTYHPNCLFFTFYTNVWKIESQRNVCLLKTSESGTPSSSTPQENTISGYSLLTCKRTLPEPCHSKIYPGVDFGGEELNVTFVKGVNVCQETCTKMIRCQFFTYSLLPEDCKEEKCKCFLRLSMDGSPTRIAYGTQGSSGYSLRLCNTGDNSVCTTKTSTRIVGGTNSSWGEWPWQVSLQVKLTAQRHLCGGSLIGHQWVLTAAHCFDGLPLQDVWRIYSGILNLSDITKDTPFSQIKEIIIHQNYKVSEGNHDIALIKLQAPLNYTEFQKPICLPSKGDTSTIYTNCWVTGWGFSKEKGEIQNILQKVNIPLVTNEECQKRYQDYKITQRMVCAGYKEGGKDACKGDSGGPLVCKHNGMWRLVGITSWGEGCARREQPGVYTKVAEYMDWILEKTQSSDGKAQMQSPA
T5 sequence (P00747 581-810 limits assumed): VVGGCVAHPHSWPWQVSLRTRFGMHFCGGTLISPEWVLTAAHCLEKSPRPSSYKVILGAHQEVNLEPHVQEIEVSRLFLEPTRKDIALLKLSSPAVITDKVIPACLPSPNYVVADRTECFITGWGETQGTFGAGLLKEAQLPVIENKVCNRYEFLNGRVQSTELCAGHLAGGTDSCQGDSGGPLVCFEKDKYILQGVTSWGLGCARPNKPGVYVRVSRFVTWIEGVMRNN
T5 sequence (P00747 97-580 partner limits assumed): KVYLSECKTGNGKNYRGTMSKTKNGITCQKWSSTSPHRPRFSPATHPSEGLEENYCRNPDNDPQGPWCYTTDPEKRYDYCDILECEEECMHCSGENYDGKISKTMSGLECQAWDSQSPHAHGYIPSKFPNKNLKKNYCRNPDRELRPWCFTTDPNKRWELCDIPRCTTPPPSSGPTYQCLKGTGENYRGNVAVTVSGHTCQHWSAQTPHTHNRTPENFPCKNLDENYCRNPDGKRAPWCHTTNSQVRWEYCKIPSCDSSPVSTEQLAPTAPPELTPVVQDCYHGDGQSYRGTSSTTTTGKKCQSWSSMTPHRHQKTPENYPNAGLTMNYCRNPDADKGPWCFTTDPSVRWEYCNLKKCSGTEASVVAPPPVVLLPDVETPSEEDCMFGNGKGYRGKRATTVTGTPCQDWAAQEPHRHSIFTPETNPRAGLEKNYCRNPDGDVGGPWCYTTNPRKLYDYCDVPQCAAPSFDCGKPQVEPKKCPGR
T4 sequence (P00750 36-562): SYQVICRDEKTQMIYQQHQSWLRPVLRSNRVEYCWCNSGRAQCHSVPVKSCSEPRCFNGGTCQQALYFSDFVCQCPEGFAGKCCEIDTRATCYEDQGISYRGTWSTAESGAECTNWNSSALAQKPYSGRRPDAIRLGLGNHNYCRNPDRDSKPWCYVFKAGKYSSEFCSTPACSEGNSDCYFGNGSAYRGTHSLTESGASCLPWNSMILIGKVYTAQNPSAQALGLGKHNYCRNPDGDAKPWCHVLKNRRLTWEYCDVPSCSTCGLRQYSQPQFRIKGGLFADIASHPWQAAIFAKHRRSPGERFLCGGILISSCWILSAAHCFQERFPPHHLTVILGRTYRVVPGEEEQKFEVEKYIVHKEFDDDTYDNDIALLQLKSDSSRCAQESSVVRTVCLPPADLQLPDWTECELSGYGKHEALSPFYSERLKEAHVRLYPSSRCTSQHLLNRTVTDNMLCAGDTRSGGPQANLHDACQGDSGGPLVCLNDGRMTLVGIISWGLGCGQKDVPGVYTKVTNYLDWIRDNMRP
T3 sequence (P00761 9-231): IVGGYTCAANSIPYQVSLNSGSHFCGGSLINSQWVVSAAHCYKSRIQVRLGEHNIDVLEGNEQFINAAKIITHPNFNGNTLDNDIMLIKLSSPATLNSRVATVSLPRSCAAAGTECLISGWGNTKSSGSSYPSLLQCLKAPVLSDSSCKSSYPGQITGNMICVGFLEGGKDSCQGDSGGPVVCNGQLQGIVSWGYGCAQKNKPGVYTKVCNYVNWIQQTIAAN
T1 sequence (P00742 235-488 limits assumed): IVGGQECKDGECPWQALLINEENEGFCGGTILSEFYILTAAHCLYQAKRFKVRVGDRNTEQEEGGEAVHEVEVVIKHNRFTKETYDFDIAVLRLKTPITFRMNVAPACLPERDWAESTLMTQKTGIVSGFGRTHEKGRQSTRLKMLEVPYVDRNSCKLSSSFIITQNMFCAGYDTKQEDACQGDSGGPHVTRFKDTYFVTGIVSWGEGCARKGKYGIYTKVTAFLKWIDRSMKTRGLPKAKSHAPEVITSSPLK
T1 sequence (P00742 41-179 partner limits assumed): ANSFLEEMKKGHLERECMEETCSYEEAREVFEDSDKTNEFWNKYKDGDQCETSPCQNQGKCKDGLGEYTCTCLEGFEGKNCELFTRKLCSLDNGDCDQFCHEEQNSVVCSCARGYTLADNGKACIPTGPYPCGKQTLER

O=C(Nc1ccc(Cl)cc1)c1ccc(NC(=O)c2ccc(-c3nc4cc(Cl)c(Cl)cc4[nH]3)cc2)c(C(=O)O)c1 [Example 119]
IC50 [1]: 39.8 ± 33.3 µM
IC50 [2]: 37.7 ± 25.2 µM
IC50 [3]: > 150 µM
IC50 [4]: 47.1 ± 22.4 µM
IC50 [5]: 2.4 ± 1.6 µM
IC50 [6]: 27.1 ± 9.2 µM
IC50 [7]: > 40 µM
IC50 ([8]; Mean ± SD, read-out: IC50 Neurotrypsin): 0.51 ± 0.16 µM
IC50 ([8]; human neurotrypsin, method of WO 2006/1103261, read-out: Neurotrypsin IC50): 0.4 µM
